Experimental data from patent publication US20150265691A1 (priority 2006, published 2015).
Where “and” joins values, the source holds several entries; their conditions need not be identical. Equal values may be shown once.

Tests used:
Format in all cases: binding
[1] = test system: rabbit anti-anthrax spore IgG
[2] = test system: rabbit anti-B. anthracis spore polyclonal IgG antibodies
[3] = test system: rabbit anti-B. anthracis spore polyclonal IgG antibodies; remark: listed apart in the source
[4] = test system: rabbit anti-anthrax spore IgG; remark: listed apart in the source

SMILES | IC50 [1] | relative inhibiting powers [1] | IgG signal detected by glycan arrays (n = 3) Mean [2] | antibody reactivity detected by glycan arrays [2] | blocking of antibody reactivity with anthrose-containing tri- and tetra-saccharides [3] | inhibition of other antibody reactivities: binding to isolichenin and Pn 23 polysaccharide [3] | I^50 [4] | IgG reactivities (Ratio of Sg./bg.) Mean [3]
COC(=O)CCCCCO[C@@H]1O[C@H](C)[C@@H](NC(=O)CC(C)(C)O)[C@H](O)[C@H]1OC [Saccharide 1, 5-(Methoxycarbonyl)pentyl 4-(3-hydroxy-3-methylbutanamido)-2-O-methyl-4,6-dideoxy-β-D-glucopyranoside] | 0.688 nM | 43.3 | 1.44 | marginally reactive | blocked the antibody reactivity | no significant inhibition | 7.3 nmol | –
COC(=O)CCCCCO[C@@H]1O[C@@H](C)[C@H](O)[C@@H](O)[C@H]1O[C@@H]1O[C@@H](C)[C@H](O)[C@@H](O[C@@H]2O[C@H](C)[C@@H](NC(=O)CC(C)(C)O)[C@H](O)[C@H]2OC)[C@H]1O [Saccharide 3, 5-(Methoxycarbonyl)pentyl 4-(3-hydroxy-3-methylbutanamido)-2-O-methyl-4,6-dideoxy-β-D-glucopyranosyl-(1→3)-α-L-rhamnopyranosyl-(1→2)-α-L-rhamnopyranoside] | 0.016 nM | 1.00 | 2.73 | significant amounts of IgG antibodies | – | – | – | –
COC(=O)CCCCCO[C@H]1O[C@@H](C)[C@H](O)[C@@H](O)[C@H]1O[C@@H]1O[C@@H](C)[C@H](O)[C@@H](O[C@@H]2O[C@@H](C)[C@H](O)[C@@H](O[C@@H]3O[C@H](C)[C@@H](NC(=O)CC(C)(C)O)[C@H](O)[C@H]3OC)[C@H]2O)[C@H]1O [Saccharide 4, 5-(Methoxycarbonyl)pentyl 4-(3-hydroxy-3-methylbutanamido)-2-O-methyl-4,6-dideoxy-β-D-glucopyranosyl-(1→3)-α-L-rhamnopyranoyl-(1→3)-α-L-rhamnopyranosyl-(1→2)-β-L-rhamnopyranoside] | – | – | 5.16 | significant amounts of IgG antibodies | – | – | 0.23 nmol | –
COC(=O)CCCCCO[C@@H]1O[C@@H](C)[C@H](O)[C@@H](O)[C@H]1O[C@@H]1O[C@@H](C)[C@H](O)[C@@H](O[C@@H]2O[C@@H](C)[C@H](O)[C@@H](O[C@@H]3O[C@H](C)[C@@H](NC(=O)CC(C)(C)O)[C@H](O)[C@H]3OC)[C@H]2O)[C@H]1O [Saccharide 5, 5-(Methoxycarbonyl)pentyl 4-(3-hydroxy-3-methylbutanamido)-2-O-methyl-4,6-dideoxy-β-D-glucopyranosyl-(1→3)-α-L-rhamnopyranoyl-(1→3)-α-L-rhamnopyranosyl-(1→2)-α-L-rhamnopyranoside] | – | – | 5.19 | significant amounts of IgG antibodies | – | – | 0.18 nmol | –
COC(=O)CCCCCO[C@@H]1O[C@@H](C)[C@H](O)[C@@H](O)[C@H]1O[C@@H]1O[C@@H](C)[C@H](O)[C@@H](O[C@@H]2O[C@@H](C)[C@H](O)[C@@H](O)[C@H]2O)[C@H]1O [Saccharide 17, 5-(Methoxycarbonyl)pentyl α-L-rhamnopyranosyl-(1→3)-α-L-rhamnopyranosyl-(1→2)-α-L-rhamnopyranoside] | – | – | 0.98 | – | – | – | – | 1.04 and 0.97 and 1.00 and 0.99
